The text below walks through data of patent publication US11034650B2, “Compounds useful for treating a Mannheimia haemolytica or Histophilus somni infection” (Intervet Inc., priority 2016, dated 2021).

Structures are written as SMILES. Values after ≈ are worked out from the molar mass of the structure shown.

The subject of one assay is Mannheimia haemolytica MH 6357 (M7/2, reference strain, cattle infection strain). The experiment in a line: MIC, broth-microdilution (CLSI VET01-A4), strain MH 6357. It is filed as cell-based. The note with it: Mannheimia haemolytica strain MH 6357, broth-microdilution; unit assumed. In short, it runs like this: (§1)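 Read-out is unaided visual inspection for turbidity. The minimum inhibitory concentration is the lowest tested level without detectable growth across a two-fold compound series.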
On the technique in general: Dilution methods test growth across graded concentrations, often in twofold steps.
As for `O=C(N[C@@H](CO)C(=O)NO)c1ccc(C#Cc2ccc(CNCc3ccccn3)cc2)cc1` [Compound 158], the MIC MH 6357 was determined as 1.6 µg/mL (≈ 3.6 µM).
The same measure, in the same setting: the result for `CNCc1ccc(C#Cc2ccc(C(=O)N[C@@H](CO)C(=O)NO)cc2)cc1` [Compound 150] reads 6.3 µg/mL (≈ 17.1 µM).
The same measure, in the same setting: the result for `Cc1ccc(CNCc2ccc(C#Cc3ccc(C(=O)N[C@H](C(=O)NO)C(C)C)cc3)cc2)cc1` [Compound 172] reads 0.4 µg/mL (≈ 0.852 µM); that for `CON=C(C)[C@H](NC(=O)c1ccc(C#Cc2ccc(CNC3CCC3)cc2)cc1)C(=O)NO` [Compound 385], 3.1 µg/mL (≈ 6.91 µM); that for `CC(C)(O)[C@H](NC(=O)c1ccc(C#Cc2ccc(CNC3CC3)cc2)cc1)C(=O)NO` [Compound 219], 1.6 µg/mL (≈ 3.8 µM).

For a further assay, the system named is Mannheimia haemolytica MH 6374 (ATCC 33396, reference strain). Put plainly: MIC, broth-microdilution (CLSI VET01-A4), strain MH 6374. It is filed as cell-based. Conditions: Mannheimia haemolytica strain MH 6374, broth-microdilution; unit assumed. In short, it runs like this: as §1
`O=C(N[C@@H](CO)C(=O)NO)c1ccc(C#Cc2ccc(CNCc3ccccn3)cc2)cc1` [Compound 158] returned an MIC MH 6374 of 3.1 µg/mL (≈ 6.97 µM).
With `CNCc1ccc(C#Cc2ccc(C(=O)N[C@@H](CO)C(=O)NO)cc2)cc1` [Compound 150], the MIC MH 6374 worked out at 25 µg/mL (≈ 68 µM).
`Cc1ccc(CNCc2ccc(C#Cc3ccc(C(=O)N[C@H](C(=O)NO)C(C)C)cc3)cc2)cc1` [Compound 172] yielded an MIC MH 6374 of 0.8 µg/mL (≈ 1.7 µM).
In the case of `CON=C(C)[C@H](NC(=O)c1ccc(C#Cc2ccc(CNC3CCC3)cc2)cc1)C(=O)NO` [Compound 385], the MIC MH 6374 was determined as 6.3 µg/mL (≈ 14 µM).
Still for that read-out and setting: the result for `CC(C)(O)[C@H](NC(=O)c1ccc(C#Cc2ccc(CNC3CC3)cc2)cc1)C(=O)NO` [Compound 219] reads 0.4 µg/mL (≈ 0.949 µM).

The subject of the next assay is Mannheimia haemolytica MH 10720 (154, BRD field isolate). The experiment in a line: MIC, broth-microdilution (CLSI VET01-A4), strain MH 10720. It is filed as cell-based. The note with it: Mannheimia haemolytica strain MH 10720, broth-microdilution; unit assumed. In short, it runs like this:
as §1
`O=C(N[C@@H](CO)C(=O)NO)c1ccc(C#Cc2ccc(CNCc3ccccn3)cc2)cc1` [Compound 158] came in with an MIC MH 10720 of 0.8 µg/mL (≈ 1.8 µM).
On the same count and under the same terms, the result for `CNCc1ccc(C#Cc2ccc(C(=O)N[C@@H](CO)C(=O)NO)cc2)cc1` [Compound 150] reads 3.1 µg/mL (≈ 8.44 µM); that for `Cc1ccc(CNCc2ccc(C#Cc3ccc(C(=O)N[C@H](C(=O)NO)C(C)C)cc3)cc2)cc1` [Compound 172], 0.4 µg/mL (≈ 0.852 µM); that for `CON=C(C)[C@H](NC(=O)c1ccc(C#Cc2ccc(CNC3CCC3)cc2)cc1)C(=O)NO` [Compound 385], 1.6 µg/mL (≈ 3.57 µM).
Same read-out and setting: the result for `CC(C)(O)[C@H](NC(=O)c1ccc(C#Cc2ccc(CNC3CC3)cc2)cc1)C(=O)NO` [Compound 219] reads ≤ 0.1 µg/mL.

Another assay has as its system Mannheimia haemolytica MH 12587 (1071, BRD field isolate, macrolide-resistance: erm+, E+). Put plainly: MIC, broth-microdilution (CLSI VET01-A4), strain MH 12587. It is filed as cell-based. The note with it: Mannheimia haemolytica strain MH 12587, broth-microdilution; unit assumed. A digest of the protocol: as §1
`O=C(N[C@@H](CO)C(=O)NO)c1ccc(C#Cc2ccc(CNCc3ccccn3)cc2)cc1` [Compound 158] yielded an MIC MH 12587 of 6.3 µg/mL (≈ 14.2 µM).
For `CNCc1ccc(C#Cc2ccc(C(=O)N[C@@H](CO)C(=O)NO)cc2)cc1` [Compound 150], the MIC MH 12587 was determined as 25 µg/mL (≈ 68 µM).
On the same count and under the same terms, the result for `Cc1ccc(CNCc2ccc(C#Cc3ccc(C(=O)N[C@H](C(=O)NO)C(C)C)cc3)cc2)cc1` [Compound 172] reads 1.6 µg/mL (≈ 3.41 µM); that for `CON=C(C)[C@H](NC(=O)c1ccc(C#Cc2ccc(CNC3CCC3)cc2)cc1)C(=O)NO` [Compound 385], 1.6 µg/mL (≈ 3.57 µM); that for `CC(C)(O)[C@H](NC(=O)c1ccc(C#Cc2ccc(CNC3CC3)cc2)cc1)C(=O)NO` [Compound 219], 1.6 µg/mL (≈ 3.8 µM).

The subject of the next assay is Mannheimia haemolytica MH 13065 (XB0446-6003.9, BRD field isolate). Put plainly: MIC, broth-microdilution (CLSI VET01-A4), strain MH 13065. It is filed as cell-based. The note with it: Mannheimia haemolytica strain MH 13065, broth-microdilution; unit assumed. In short, it runs like this:
as §1
Turning to `O=C(N[C@@H](CO)C(=O)NO)c1ccc(C#Cc2ccc(CNCc3ccccn3)cc2)cc1` [Compound 158], the MIC MH 13065 came to 6.3 µg/mL (≈ 14.2 µM).
On the same count and under the same terms, the result for `CNCc1ccc(C#Cc2ccc(C(=O)N[C@@H](CO)C(=O)NO)cc2)cc1` [Compound 150] reads 12.5 µg/mL (≈ 34 µM); that for `Cc1ccc(CNCc2ccc(C#Cc3ccc(C(=O)N[C@H](C(=O)NO)C(C)C)cc3)cc2)cc1` [Compound 172], 0.8 µg/mL (≈ 1.7 µM); that for `CON=C(C)[C@H](NC(=O)c1ccc(C#Cc2ccc(CNC3CCC3)cc2)cc1)C(=O)NO` [Compound 385], 3.1 µg/mL (≈ 6.91 µM).
Still for that read-out and setting: the result for `CC(C)(O)[C@H](NC(=O)c1ccc(C#Cc2ccc(CNC3CC3)cc2)cc1)C(=O)NO` [Compound 219] reads 0.4 µg/mL (≈ 0.949 µM).

The test system of a further assay is Mannheimia haemolytica MH 13093 (XB0472-6014.1, BRD field isolate). The experiment in a line: MIC, broth-microdilution (CLSI VET01-A4), strain MH 13093. It is filed as cell-based. Conditions: Mannheimia haemolytica strain MH 13093, broth-microdilution; unit assumed. A digest of the protocol: as §1
Turning to `O=C(N[C@@H](CO)C(=O)NO)c1ccc(C#Cc2ccc(CNCc3ccccn3)cc2)cc1` [Compound 158], the MIC MH 13093 is 6.3 µg/mL (≈ 14.2 µM).
The compound `CNCc1ccc(C#Cc2ccc(C(=O)N[C@@H](CO)C(=O)NO)cc2)cc1` [Compound 150] had an MIC MH 13093 of 25 µg/mL (≈ 68 µM).
`Cc1ccc(CNCc2ccc(C#Cc3ccc(C(=O)N[C@H](C(=O)NO)C(C)C)cc3)cc2)cc1` [Compound 172]: the MIC MH 13093 is 0.8 µg/mL (≈ 1.7 µM).
`CON=C(C)[C@H](NC(=O)c1ccc(C#Cc2ccc(CNC3CCC3)cc2)cc1)C(=O)NO` [Compound 385]: the MIC MH 13093 worked out at 6.3 µg/mL (≈ 14 µM).
The compound `CC(C)(O)[C@H](NC(=O)c1ccc(C#Cc2ccc(CNC3CC3)cc2)cc1)C(=O)NO` [Compound 219] returned an MIC MH 13093 of 0.8 µg/mL (≈ 1.9 µM).

The subject of a further assay is Pasteurella multocida PM 6267 (P 2225 (L386), reference strain, mouse infection strain). The experiment in a line: MIC, broth-microdilution (CLSI VET01-A4), strain PM 6267. It is filed as cell-based. Conditions: Pasteurella multocida strain PM 6267, broth-microdilution; unit assumed. In short, it runs like this:
as §1
For `O=C(N[C@@H](CO)C(=O)NO)c1ccc(C#Cc2ccc(CNCc3ccccn3)cc2)cc1` [Compound 158], the MIC PM 6267 amounted to 0.4 µg/mL (≈ 0.9 µM).
`CNCc1ccc(C#Cc2ccc(C(=O)N[C@@H](CO)C(=O)NO)cc2)cc1` [Compound 150] gave an MIC PM 6267 of 6.3 µg/mL (≈ 17.1 µM).
Same read-out and setting: the result for `Cc1ccc(CNCc2ccc(C#Cc3ccc(C(=O)N[C@H](C(=O)NO)C(C)C)cc3)cc2)cc1` [Compound 172] reads 0.2 µg/mL (≈ 0.426 µM); that for `CON=C(C)[C@H](NC(=O)c1ccc(C#Cc2ccc(CNC3CCC3)cc2)cc1)C(=O)NO` [Compound 385], 25 µg/mL (≈ 55.7 µM); that for `CC(C)(O)[C@H](NC(=O)c1ccc(C#Cc2ccc(CNC3CC3)cc2)cc1)C(=O)NO` [Compound 219], ≤ 0.1 µg/mL.

The subject of the next assay is Pasteurella multocida PM 6391 (ATCC 43137, reference strain). The experiment in a line: MIC, broth-microdilution (CLSI VET01-A4), strain PM 6391. It is filed as cell-based. The note with it: Pasteurella multocida strain PM 6391, broth-microdilution; unit assumed. In short, it runs like this: as §1
Take `O=C(N[C@@H](CO)C(=O)NO)c1ccc(C#Cc2ccc(CNCc3ccccn3)cc2)cc1` [Compound 158]: the MIC PM 6391 amounted to 0.8 µg/mL (≈ 1.8 µM).
Still for that read-out and setting: the result for `CNCc1ccc(C#Cc2ccc(C(=O)N[C@@H](CO)C(=O)NO)cc2)cc1` [Compound 150] reads 25 µg/mL (≈ 68 µM); that for `Cc1ccc(CNCc2ccc(C#Cc3ccc(C(=O)N[C@H](C(=O)NO)C(C)C)cc3)cc2)cc1` [Compound 172], 0.4 µg/mL (≈ 0.852 µM).
`CON=C(C)[C@H](NC(=O)c1ccc(C#Cc2ccc(CNC3CCC3)cc2)cc1)C(=O)NO` [Compound 385]: the MIC PM 6391 was found to be 0.2 µg/mL (≈ 0.446 µM).
Same read-out and setting: the result for `CC(C)(O)[C@H](NC(=O)c1ccc(C#Cc2ccc(CNC3CC3)cc2)cc1)C(=O)NO` [Compound 219] reads ≤ 0.1 µg/mL.

The next assay concerns Pasteurella multocida PM 10775 (080130003051, BRD field isolate). The experiment in a line: MIC, broth-microdilution (CLSI VET01-A4), strain PM 10775. It is filed as cell-based. Conditions: Pasteurella multocida strain PM 10775, broth-microdilution; unit assumed. In short, it runs like this:
as §1
Regarding `O=C(N[C@@H](CO)C(=O)NO)c1ccc(C#Cc2ccc(CNCc3ccccn3)cc2)cc1` [Compound 158], the MIC PM 10775 was ≤ 0.1 µg/mL.
The same measure, in the same setting: the result for `CNCc1ccc(C#Cc2ccc(C(=O)N[C@@H](CO)C(=O)NO)cc2)cc1` [Compound 150] reads ≤ 0.1 µg/mL; that for `Cc1ccc(CNCc2ccc(C#Cc3ccc(C(=O)N[C@H](C(=O)NO)C(C)C)cc3)cc2)cc1` [Compound 172], ≤ 0.1 µg/mL; that for `CON=C(C)[C@H](NC(=O)c1ccc(C#Cc2ccc(CNC3CCC3)cc2)cc1)C(=O)NO` [Compound 385], 0.8 µg/mL (≈ 1.78 µM).
For `CC(C)(O)[C@H](NC(=O)c1ccc(C#Cc2ccc(CNC3CC3)cc2)cc1)C(=O)NO` [Compound 219], the MIC PM 10775 was ≤ 0.1 µg/mL.

The subject of a further assay is Pasteurella multocida PM 12080 (IV102277-0093, BRD field isolate). Put plainly: MIC, broth-microdilution (CLSI VET01-A4), strain PM 12080. It is filed as cell-based. The note with it: Pasteurella multocida strain PM 12080, broth-microdilution; unit assumed. A digest of the protocol:
as §1
In the case of `O=C(N[C@@H](CO)C(=O)NO)c1ccc(C#Cc2ccc(CNCc3ccccn3)cc2)cc1` [Compound 158], the MIC PM 12080 was 0.8 µg/mL (≈ 1.8 µM).
Consider `CNCc1ccc(C#Cc2ccc(C(=O)N[C@@H](CO)C(=O)NO)cc2)cc1` [Compound 150], for which the MIC PM 12080 was ≤ 0.1 µg/mL.
In turn, `Cc1ccc(CNCc2ccc(C#Cc3ccc(C(=O)N[C@H](C(=O)NO)C(C)C)cc3)cc2)cc1` [Compound 172] registered an MIC PM 12080 of 0.4 µg/mL (≈ 0.852 µM).
The compound `CON=C(C)[C@H](NC(=O)c1ccc(C#Cc2ccc(CNC3CCC3)cc2)cc1)C(=O)NO` [Compound 385] yielded an MIC PM 12080 of 0.4 µg/mL (≈ 0.892 µM).
The same measure, in the same setting: the result for `CC(C)(O)[C@H](NC(=O)c1ccc(C#Cc2ccc(CNC3CC3)cc2)cc1)C(=O)NO` [Compound 219] reads ≤ 0.1 µg/mL.
